These results are taken from US8440653B2, “3-substituted-1,4-diazepan-2-one melanocortin-5 receptor antagonists” (Mimetica Pty Ltd, priority 2008, dated 2013).

By IC50 is commonly meant the concentration needed to halve the response being measured. As usually defined, the EC50 is the midpoint of the concentration-response curve.

One experiment deals with T1, human MC4R (Homo sapiens, UniProt P32245).
T1 construct: expressed in transfected cells; host or cells: transfected mammalian cells, if the membranes were in-house
T1 sequence (P32245 whole entry): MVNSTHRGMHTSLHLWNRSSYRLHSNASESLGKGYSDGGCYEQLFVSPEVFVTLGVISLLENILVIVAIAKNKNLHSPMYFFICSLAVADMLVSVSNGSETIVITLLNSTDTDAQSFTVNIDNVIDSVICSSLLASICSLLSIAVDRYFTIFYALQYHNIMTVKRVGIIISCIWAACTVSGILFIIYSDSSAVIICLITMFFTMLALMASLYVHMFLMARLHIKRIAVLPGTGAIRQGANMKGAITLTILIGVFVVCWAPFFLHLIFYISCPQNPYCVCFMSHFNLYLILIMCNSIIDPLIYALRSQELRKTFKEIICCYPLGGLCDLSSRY
Briefly: Human MC4R radioligand binding assay. The conditions noted are these: [125I] NDP-MSH. Here is the method: (§1) Assays were performed in 96 well polypropylene plates. […] This was incubated for 1 hr at 37° C. […] Non-specific binding just under 5%.
(§2) Radioligand binding assays were carried out using commercial or in-house prepared hMC1R, hMC3R and hMC4R membranes and [^125I] NDP-MSH, as per hMC5R procedure in Example 46.
(§3) The homogenisation and ice incubation was repeated three times. The mixture was then centrifuged at 1260×g for 5 mins. […] This was centrifuged at 30,000×g for 90 mins at 4° C.

The target of experiment [1] is T2, human MC5R (Homo sapiens, UniProt P33032).
T2 construct: host or cells: HEK 293, transient transfection
T2 sequence (P33032 whole entry): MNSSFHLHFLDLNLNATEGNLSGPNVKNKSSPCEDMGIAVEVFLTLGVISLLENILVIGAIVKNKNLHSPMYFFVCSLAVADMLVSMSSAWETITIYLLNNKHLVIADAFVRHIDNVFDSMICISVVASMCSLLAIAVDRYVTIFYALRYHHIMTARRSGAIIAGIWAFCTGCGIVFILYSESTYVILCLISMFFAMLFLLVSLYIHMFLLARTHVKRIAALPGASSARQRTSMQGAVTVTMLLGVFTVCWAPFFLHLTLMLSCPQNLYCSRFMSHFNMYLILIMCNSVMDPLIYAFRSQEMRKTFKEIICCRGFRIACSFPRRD
Briefly: cAMP assay (antagonism of alpha-MSH) in HEK 293 cells expressing human MC5R. In kind it is cell-based. The conditions noted are these: HEK 293 cells transiently expressing MC5R; 10^−6 M alpha-MSH. On the procedure:
(§4) HEK 293 cells transiently expressing the melanocortin MC5 receptor were suspended in stimulation buffer (Hanks buffered saline solution (HBSS), 0.1% bovine serum albumin, protease inhibitors and 0.5 mM 3-Isobutyl-1-methylxanthine) at 4×10^6 cells/mL. 5 μl of cells, plus the compounds/peptides as described below, were added to wells of a 384-well plate as soon as possible after resuspension.
To detect antagonist activity, test compounds at varying concentrations were diluted in stimulation buffer at four times concentrate and 2.5 μl was added to wells containing cells. 2.5 μl of a four times required concentration of NDP-MSH or alpha-MSH was added to all wells containing compounds. […]
(§5) Basal level (of cAMP) control wells contained stimulation buffer only (no agonist or compounds). […] After incubation, 10 μl of lysis buffer (10% Tween 20, 1 M HEPES, 0.1% BSA, protease inhibitors, ddH2O) was added to all wells to be measured. […] 5 μl of diluted acceptor beads were added to each well to be measured, then the plate was incubated for 30 mins at room temperature, in the dark, with gentle shaking. […] Plates were read on an Envision plate reader (Perkin Elmer) after 1 hr and ˜16 hrs incubation. cAMP concentration in the cells was determined by the use of a ‘standard curve’ generated from the output of known cAMP concentrations as described below. […]
On the technique in general: Changes in cAMP serve as a functional read-out for many G protein-coupled receptors.

A further experiment concerns the target T3, human MC1R (Homo sapiens, UniProt Q01726).
T3 construct: expressed in transfected cells; host or cells: transfected mammalian cells, if the membranes were in-house
Briefly: Human MC1R radioligand binding assay. The conditions noted are these: [125I] NDP-MSH. Here is the method: as §1, §2, §3

The next experiment addresses T4, human MC5R (hMC5R) (Homo sapiens, UniProt P33032).
T4 construct: purchased Perkin Elmer RBXMC5M400UA
Briefly: Human MC5R radioligand binding assay ([125I] NDP-MSH displacement). On the procedure:
Assessments of compound binding to human MC5R (hMC5R) by displacement of an ^125I-labeled NDP-MSH receptor ligand peptide were performed essentially as described in the data sheets produced by Perkin Elmer to accompany their frozen hMC5R membranes (Perkin Elmer catalog number RBXMC5M400UA).
Na^125I (0.5 mCi, 17.4 Ci/mg) was added to 50 μL sodium phosphate (50 mM, pH 7.4) in an eppendorf tube precoated with IODOGEN. After incubation for 10 mins the phosphate buffer containing the iodine was added to NDP-MSH (10 ul at 1 mg/mL) in a separate eppendorf tube. This was incubated for a further 10 mins. The iodinated NDP-MSH was purified by HPLC on a Zorbax SB 300 column using solvent A: 0.05% TFA and solvent B: 90% acetonitrile 0.045% TFA with a linear gradient, 0-67% B over 60 mins. The ^125I NDP-MSH eluted at 52 min after the unlabeled starting material (48 min) and was counted and stored in the freezer.
Incubation buffer: 25 mM HEPES-KOH (pH 7.0), 1.5 mM CaCl2, 1 mM MgSO4, 0.1 M NaCl, 1 mM 1,10-phenanthroline, and 1 Complete™ protease inhibitor tablet/100 mL (Roche, catalog number 1873580)
Perkin Elmer frozen hMC5 membranes: catalog number RBXMC5M400UA, 0.4 mL/vial; 400 microassays/vial. 0.78 mg/mL protein concentration
Vials of frozen membranes were thawed rapidly immediately before use, diluted with binding buffer and vortexed. Resuspended membranes were kept on ice until they were added to the wells of the plate.
as §1
Representative compounds of the present invention were tested for binding in the hMC5R assay as in Example 46, as listed in Table 3. The compounds were tested as their trifluoroacetate or hydrochloride salts, or as their free bases.

In a further experiment the target is T5, human MC3R (Homo sapiens, UniProt P41968).
T5 construct: expressed in transfected cells; host or cells: transfected mammalian cells, if the membranes were in-house
T5 sequence (P41968 whole entry): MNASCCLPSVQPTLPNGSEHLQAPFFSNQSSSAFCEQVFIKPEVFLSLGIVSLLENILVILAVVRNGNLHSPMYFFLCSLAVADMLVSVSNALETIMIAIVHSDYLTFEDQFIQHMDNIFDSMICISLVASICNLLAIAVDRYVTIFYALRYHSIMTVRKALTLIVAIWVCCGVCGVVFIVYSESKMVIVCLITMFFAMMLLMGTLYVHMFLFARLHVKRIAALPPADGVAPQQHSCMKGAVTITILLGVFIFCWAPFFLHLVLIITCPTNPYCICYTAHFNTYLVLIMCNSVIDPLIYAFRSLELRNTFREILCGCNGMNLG
Briefly: Human MC3R radioligand binding assay. The conditions noted are these: [125I] NDP-MSH. On the procedure: as §1, §2, §3

Experiment [2] addresses T2, human MC5R. Briefly: cAMP stimulation assay (agonism) in HEK 293 cells expressing human MC5R. It is filed as cell-based. The conditions noted are these: HEK 293 cells transiently expressing MC5R. On the procedure:
as §4
To detect agonist activity, test compounds at varying concentrations were diluted in stimulation buffer at two times concentrate and 5 μl was added to wells containing cells. Positive control wells contained NDP-MSH or alpha-MSH alone (no compound) at two times concentrate
as §5

A further experiment deals with T6, mouse MC5R (Mus musculus, UniProt P41149).
T6 construct: purchased Euroscreen
T6 sequence (P41149 whole entry): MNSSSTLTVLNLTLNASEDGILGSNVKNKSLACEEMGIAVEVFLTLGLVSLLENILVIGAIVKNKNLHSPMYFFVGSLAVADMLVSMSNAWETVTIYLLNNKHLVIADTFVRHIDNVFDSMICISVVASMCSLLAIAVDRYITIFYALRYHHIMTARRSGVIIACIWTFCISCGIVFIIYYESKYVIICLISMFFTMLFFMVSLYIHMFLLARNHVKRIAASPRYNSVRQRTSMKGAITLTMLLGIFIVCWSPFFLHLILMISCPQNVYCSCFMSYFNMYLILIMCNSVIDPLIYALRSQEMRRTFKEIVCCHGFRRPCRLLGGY
Briefly: MC5R radioligand binding assay, other species: mouse MC5R membranes. The conditions noted are these: membranes from Euroscreen; read-out: mouse MC5R (membrane) IC50. Here is the method: as §1
(§6) Representative compounds of the present invention were tested for binding to MC5R from other species, as in described in Example 48, the results are listed in Table 4.

Another experiment addresses T7, rhesus monkey MC5R (Macaca mulatta, UniProt A0A5F8AEA9).
T7 construct: expressed in transfected cells
Briefly: MC5R radioligand binding assay, other species: rhesus monkey MC5R membranes. The conditions noted are these: membranes of cells expressing cloned receptor. On the procedure:
as §1, §6

For a further experiment, the system named is sebum excretion. The conditions noted are these: oral isotretinoin, after 8-12 weeks of therapy; cited from earlier work.
The mark [3] stands for this setting: Table 5, hMCR binding selectivity, read-out: human MC5R IC50.
Setting [4] is: hMC5R membranes, [125I] NDP-MSH, tested as trifluoroacetate or hydrochloride salts or free bases, read-out: MC5R radioligand IC50.

Like-named read-outs stand apart in the source and are kept apart here. Some results are limits rather than exact numbers.

T4 sequence (P33032 whole entry): as the sequence (P33032 whole entry) above
T3 sequence (Q01726 whole entry): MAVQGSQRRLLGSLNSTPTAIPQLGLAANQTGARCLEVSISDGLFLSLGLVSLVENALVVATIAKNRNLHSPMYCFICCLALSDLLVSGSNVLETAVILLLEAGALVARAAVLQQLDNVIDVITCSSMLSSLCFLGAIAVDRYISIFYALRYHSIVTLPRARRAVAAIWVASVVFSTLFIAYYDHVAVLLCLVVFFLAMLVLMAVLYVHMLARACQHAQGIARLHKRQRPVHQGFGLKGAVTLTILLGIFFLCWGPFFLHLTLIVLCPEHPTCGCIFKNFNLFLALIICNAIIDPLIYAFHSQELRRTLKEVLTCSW
T7 sequence (A0A5F8AEA9 1-325): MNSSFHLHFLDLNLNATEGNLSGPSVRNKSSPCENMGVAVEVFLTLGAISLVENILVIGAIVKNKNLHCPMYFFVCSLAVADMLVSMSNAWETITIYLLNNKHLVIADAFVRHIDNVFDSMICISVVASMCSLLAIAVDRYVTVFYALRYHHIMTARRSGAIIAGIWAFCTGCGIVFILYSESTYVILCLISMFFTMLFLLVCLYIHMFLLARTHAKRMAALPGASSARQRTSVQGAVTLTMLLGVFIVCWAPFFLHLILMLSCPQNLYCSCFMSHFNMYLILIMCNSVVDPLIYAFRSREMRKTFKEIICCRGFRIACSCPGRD

On to `CC[C@H](CN1CC[C@@H](CNC(=O)c2ccc3cc(Cl)ccc3c2)N[C@@H](CCC(=O)N2CCCCC2)C1=O)c1ccccc1` [Compound 66, 6-chloro-N-(((3S,5S)-2-oxo-3-(3-oxo-3-(piperidin-1-yl)propyl)-1-((S)-2-phenylbutyl)-1,4-diazepan-5-yl)methyl)-2-naphthamide], for which the IC50 on human MC4R was over 10 µM; on human MC5R [1], 0.6 µM; on human MC1R it was over 10 µM; on human MC5R (hMC5R) (setting [3]), 0.05 µM; at human MC5R (hMC5R) (setting [4]), under 0.1 µM; on human MC3R, 4.96 µM. Moreover, the EC50 at human MC5R [2] is over 10 µM.
As for `CC[C@H](CN1CC[C@@H](CNC(=O)c2ccc3cc(Cl)ccc3c2)N[C@@H](CCC(C)C)C1=O)c1ccccc1` [Compound 17, 6-chloro-N-(((3S,5S)-3-isopentyl-2-oxo-1-((S)-2-phenylbutyl)-1,4-diazepan-5-yl)methyl)-2-naphthamide], the IC50 on human MC4R was over 10 µM; against human MC5R [1] it was 6 µM; at human MC1R, over 10 µM; on mouse MC5R, 2.3 µM; on human MC5R (hMC5R) (Table 4, membranes, read-out: human MC5R (membrane) IC50), 0.03 µM; at human MC5R (hMC5R) (setting [3]) it was 0.03 µM. Moreover, the results for the IC50 on human MC5R (hMC5R) (setting [4]), on rhesus monkey MC5R and at human MC3R were under 0.1 µM, 3.76 µM and 3.05 µM, respectively. For the same molecule, the EC50 at human MC5R [2] was over 10 µM.
Turning to `CC1=C(/C=C/C(C)=C/C=C/C(C)=C\C(=O)O)C(C)(C)CCC1` [isotretinoin, 13-cis-retinoic acid], in the experiment with sebum excretion, the “reduction of sebum excretion” value was “up to 90%”.
